In patent US20160170302A1, “NOVEL COMPOUND” (TOKYO OHKA KOGYO CO., LTD., priority 2011, published 2016):

Assay: Solubility to organic solvents PM and AN
Settings: for Solubility to Solvent AN: solvent: cyclohexanone (AN); for Solubility to Solvent PM: solvent: propylene glycol monomethyl ether acetate (PM)

In the case of `CCO[Si](C)(CCCN)OCC` [Comparative Compound 6, reference compound], the “Solubility to Solvent AN” value is reported as greater than 50 mass % and the “Solubility to Solvent PM” value is reported as greater than 50 mass %.
With `CCN(CC)C(=O)/C=C/c1ccc(OC)cc1` [Compound 1] the “Solubility to Solvent AN” value was greater than 50 mass % and the “Solubility to Solvent PM” value was greater than 50 mass %.
With `COc1ccc(/C=C/C(=O)Nc2ccccc2)cc1` [Compound 2] the “Solubility to Solvent AN” value was greater than 50 mass % and the “Solubility to Solvent PM” value was greater than 50 mass %.
In the case of `COc1ccc(/C=C/C(=O)n2ccnc2)cc1` [Compound 3], the “Solubility to Solvent AN” value is reported as greater than 50 mass % and the “Solubility to Solvent PM” value is reported as greater than 50 mass %.
For `COc1ccc(/C=C/C(=O)n2ccnc2)cc1[N+](=O)[O-]` [Compound 6], the “Solubility to Solvent AN” value was greater than 50 mass % and the “Solubility to Solvent PM” value was greater than 50 mass %.
With `CCN(CC)C(=O)/C=C/c1ccc(OC)cc1[N+](=O)[O-]` [Compound 9] the “Solubility to Solvent AN” value was greater than 50 mass % and the “Solubility to Solvent PM” value was greater than 50 mass %.
In the case of `CCN(CC)C(=O)/C=C/c1ccc(OC)c([N+](=O)[O-])c1` [Compound 10], the “Solubility to Solvent AN” value is reported as greater than 50 mass % and the “Solubility to Solvent PM” value is reported as greater than 50 mass %.
For `CCN(CC)C(=O)/C(C)=C/c1ccc(OC)cc1[N+](=O)[O-]` [Compound 11], the “Solubility to Solvent AN” value was greater than 50 mass % and the “Solubility to Solvent PM” value was greater than 50 mass %.
For `CCN(CC)C(=O)/C(C)=C/c1ccc(OC)c([N+](=O)[O-])c1` [Compound 12], the “Solubility to Solvent AN” value was greater than 50 mass % and the “Solubility to Solvent PM” value was greater than 50 mass %.
For `COc1ccc(/C=C/C(=O)N2CCCCC2)c([N+](=O)[O-])c1` [Compound 13], the “Solubility to Solvent AN” value was greater than 50 mass % and the “Solubility to Solvent PM” value was greater than 50 mass %.
For `COc1ccc(/C=C/C(=O)N2CCCCC2)cc1[N+](=O)[O-]` [Compound 14], the “Solubility to Solvent AN” value was greater than 50 mass % and the “Solubility to Solvent PM” value was greater than 50 mass %.
For `COc1ccc(/C=C(\C)C(=O)N2CCCCC2)c([N+](=O)[O-])c1` [Compound 15], the “Solubility to Solvent AN” value was greater than 50 mass % and the “Solubility to Solvent PM” value was greater than 50 mass %.
In the case of `COc1ccc(/C=C(\C)C(=O)N2CCCCC2)cc1[N+](=O)[O-]` [Compound 16], the “Solubility to Solvent AN” value is reported as greater than 50 mass % and the “Solubility to Solvent PM” value is reported as greater than 50 mass %.
With `COc1ccc(/C=C/C(=O)N2CCCCC2)cc1` [Compound 17] the “Solubility to Solvent AN” value was greater than 50 mass % and the “Solubility to Solvent PM” value was greater than 50 mass %.
With `COc1ccc(/C=C(\C)C(=O)n2ccnc2)cc1` [Compound 18] the “Solubility to Solvent AN” value was greater than 50 mass % and the “Solubility to Solvent PM” value was greater than 50 mass %.
In the case of `CCN(CC)C(=O)/C(C)=C/c1ccc(OC)cc1` [Compound 19], the “Solubility to Solvent AN” value is reported as greater than 50 mass % and the “Solubility to Solvent PM” value is reported as greater than 50 mass %.
For `COc1ccc(/C=C(\C)C(=O)Nc2ccccc2)cc1` [Compound 20], the “Solubility to Solvent AN” value was greater than 50 mass % and the “Solubility to Solvent PM” value was greater than 50 mass %.
